As a reminder, the Ki is the equilibrium dissociation constant of an inhibitor or competing ligand from its target. A higher Ki goes with a looser hold on the target.

Where only a bound is given, the exact number is not on record here.

Sequence of HPK1 (Q92918 whole entry, looked up): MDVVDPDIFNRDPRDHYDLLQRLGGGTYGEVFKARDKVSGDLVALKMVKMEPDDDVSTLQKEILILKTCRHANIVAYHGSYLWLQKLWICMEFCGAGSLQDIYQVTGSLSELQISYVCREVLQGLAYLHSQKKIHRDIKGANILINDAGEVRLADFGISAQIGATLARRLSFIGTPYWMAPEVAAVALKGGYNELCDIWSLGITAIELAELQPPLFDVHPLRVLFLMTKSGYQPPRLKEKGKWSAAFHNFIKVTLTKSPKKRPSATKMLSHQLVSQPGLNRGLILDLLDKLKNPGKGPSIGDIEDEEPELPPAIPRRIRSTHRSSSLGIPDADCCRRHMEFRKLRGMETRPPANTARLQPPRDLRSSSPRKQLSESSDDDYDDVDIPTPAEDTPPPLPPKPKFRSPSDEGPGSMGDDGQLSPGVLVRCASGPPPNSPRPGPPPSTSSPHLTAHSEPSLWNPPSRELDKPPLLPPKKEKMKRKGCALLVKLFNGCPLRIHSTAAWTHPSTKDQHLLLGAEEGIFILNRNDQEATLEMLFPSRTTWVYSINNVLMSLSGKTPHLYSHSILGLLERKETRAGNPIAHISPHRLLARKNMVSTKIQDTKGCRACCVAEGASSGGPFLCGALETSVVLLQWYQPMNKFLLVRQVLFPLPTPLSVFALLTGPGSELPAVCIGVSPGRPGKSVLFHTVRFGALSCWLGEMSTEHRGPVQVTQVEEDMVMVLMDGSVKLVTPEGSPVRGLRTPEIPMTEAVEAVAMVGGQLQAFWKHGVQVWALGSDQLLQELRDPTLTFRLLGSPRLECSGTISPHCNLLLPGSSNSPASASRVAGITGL

For this experiment, the target named is HPK1 (Homo sapiens, UniProt Q92918). Put plainly: HPK1 Kinase Binding Assay. The conditions noted are these: LanthaScreen tracer 222 binding, one hour incubation at 25° C. On the procedure:
Example A. HPK1 Kinase Binding Assay
A stock solution of 1 mM test compound was prepared in DMSO. The compound plate was prepared by 3-fold and 11-point serial dilutions. 0.1 μL of the compound in DMSO was transferred from the compound plate to the white 384 well polystyrene plates. The assay buffer contained 50 mM HEPES, pH 7.5, 0.01% Tween-20, 5 mM MgCl2, 0.01% BSA, and 5 mM DTT. 5 μl of 4 nM active HPK1 (SignalChem M23-11G) prepared in the buffer was added to the plate. The enzyme concentration given was based on the given stock concentration reported by the vender. 5 μl of 18 nM tracer 222 (ThermoFisher PV6121) and 4 nM LanthaScreen Eu-Anti GST antibody (ThermoFisher PV5595) were added. After one hour incubation at 25° C., the plates were read on a PHERAstar FS plate reader (BMG Labtech). Ki values were determined.
On the technique in general: In TR-FRET formats the signal depends on donor and acceptor labels being close together.
Take `CN1CCN(c2ccc(-c3n[nH]c4ccc(-c5cccc(C(=O)NCc6ccncc6)c5F)nc34)cc2)CC1` [Example 43, 2-Fluoro-3-(3-(4-(4-methylpiperazin-1-yl)phenyl)-1H-pyrazolo[4,3-b]pyridin-5-yl)-N-(pyridin-4-ylmethyl)benzamide]: the Ki was at most 100 nM.

Turning to `CNCc1cc(C)c(-c2nc3c(-c4ccc(C(=O)NC)nc4)n[nH]c3cc2C#N)c(F)c1` [Example 72, 5-(6-Cyano-5-(2-fluoro-6-methyl-4-((methylamino)methyl)phenyl)-1H-pyrazolo[4,3-b]pyridin-3-yl)-N-methylpicolinamide], the Ki was at most 100 nM. Under `CCN1CCN(c2ccc(-c3n[nH]c4cc(C#N)c(-c5c(C)cc(CNC)cc5F)nc34)cc2)CC1` [Example 69, 3-(4-(4-Ethylpiperazin-1-yl)phenyl)-5-(2-fluoro-6-methyl-4-((methylamino)methyl)phenyl)-1H-pyrazolo[4,3-b]pyridine-6-carbonitrile] stands at most 100 nM. The same measure for `CNCc1cc(C)c(-c2nc3c(-c4ccc(N5CCN(C)CC5)nc4)n[nH]c3cc2C#N)c(F)c1` [Example 67, 5-(2-Fluoro-6-methyl-4-((methylamino)methyl)phenyl)-3-(6-(4-methylpiperazin-1-yl)pyridin-3-yl)-1H-pyrazolo[4,3-b]pyridine-6-carbonitrile]: at most 100 nM; for `CN1CCN(c2ccc(-c3n[nH]c4ccc(-c5cccn6ccnc56)nc34)cc2)CC1` [Example 44, 5-(Imidazo[1,2-a]pyridin-8-yl)-3-(4-(4-methylpiperazin-1-yl)phenyl)-1H-pyrazolo[4,3-b]pyridine]: at most 100 nM; for `CCOC(=O)c1cccc(-c2ccc3[nH]nc(-c4ccc(N5CCN(C)CC5)cc4)c3n2)c1F` [Example 12, Ethyl 2-fluoro-3-(3-(4-(4-methylpiperazin-1-yl)phenyl)-1H-pyrazolo[4,3-b]pyridin-5-yl)benzoate]: at most 100 nM.

`CN1CCN(c2ccc(-c3n[nH]c4ccc(-c5cnc6cnn(C)c6c5)nc34)cc2)CC1` [Example 28, 1′-Methyl-3-(4-(4-methylpiperazin-1-yl)phenyl)-1H,1′H-5,6′-bipyrazolo[4,3-b]pyridine] had an inhibition constant Ki of at most 100 nM. Under `CN1CCN(c2ccc(-c3n[nH]c4ccc(-c5cccc6c5CCC6N)nc34)cc2)CC1` (stereo not shown) [Example 47, 4-(3-(4-(4-Methylpiperazin-1-yl)phenyl)-1H-pyrazolo[4,3-b]pyridin-5-yl)-2,3-dihydro-1H-inden-1-amine] stands at most 100 nM.

Compound `CNC(=O)c1ccc(-c2n[nH]c3cc(C#N)c(-c4c(C)cccc4F)nc23)cn1` [Example 65, 5-(6-Cyano-5-(2-fluoro-6-methylphenyl)-1H-pyrazolo[4,3-b]pyridin-3-yl)-N-methylpicolinamide] registered a Ki of at most 100 nM.

Consider `CN1CCN(c2ccc(-c3n[nH]c4ccc(-c5cccc6c5CCNC6)nc34)cc2)CC1` [Example 46, 5-(3-(4-(4-Methylpiperazin-1-yl)phenyl)-1H-pyrazolo[4,3-b]pyridin-5-yl)-1,2,3,4-tetrahydroisoquinoline], for which the Ki is at most 100 nM.

In the case of `CNCc1cc(C)c(-c2nc3c(-c4cnc(N5CCN(C)CC5)nc4)n[nH]c3cc2C#N)c(F)c1` [Example 68, 5-(2-Fluoro-6-methyl-4-((methylamino)methyl)phenyl)-3-(2-(4-methylpiperazin-1-yl)pyrimidin-5-yl)-1H-pyrazolo[4,3-b]pyridine-6-carbonitrile], the Ki was at most 100 nM. Under `CN1CCN(c2ccc(-c3n[nH]c4ccc(-c5cncc6ccccc56)nc34)cc2)CC1` [Example 37, 4-(3-(4-(4-Methylpiperazin-1-yl)phenyl)-1H-pyrazolo[4,3-b]pyridin-5-yl)isoquinoline] stands at most 100 nM; under `CN1CCN(c2ccc(-c3n[nH]c4ccc(-c5cccc(C(N)=O)c5F)nc34)cc2)CC1` [Example 40, 2-Fluoro-3-(3-(4-(4-methylpiperazin-1-yl)phenyl)-1H-pyrazolo[4,3-b]pyridin-5-yl)benzamide], at most 100 nM.

The values above are taken from US11242343B2 (Incyte Corporation, priority 2016, dated 2022).
